In brackets after ≈: the same amount, converted by molar mass. Square brackets hold non-standard residues; d marks the D form. Ends that are not written are not given here. Peptide text beside a SMILES is read from it.
Tests used:
[1] = test system: S. aureus ATCC 33592 (MRSA SCCmec type III); assay: MIC, broth dilution; format: cell-based, Staphylococcus aureus; details: Table 5; STIP3 variants, highest concentration 100 μg/mL
Method in brief: (§1)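 MIC defined as the lowest peptide level giving no growth after overnight standing incubation at 37° C. Bacteria at OD 6×10^−4 in cation-adjusted MH broth met 2-fold serial peptide dilutions; peptide purity 95%.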

[2] = test system: S. aureus ATCC 29213; assay: MIC, broth dilution; format: cell-based, Staphylococcus aureus; details: Table 5; STIP3 variants, highest concentration 100 μg/mL
Method in brief: as §1

[3] = test system: S. aureus / MRSA (ATCC MP-2 panel); format: cell-based, Staphylococcus aureus
Experimental: In order to begin to characterize STIP3-1 and potential sites amenable to modification, an alanine scanning experiment was performed. A total of 16 peptides with single alanine substitutions were assessed to inform on the importance of individual residues to antimicrobial activity. […] Next a series of thirty STIP3-1 variants were designed, guided by the aforementioned alanine scan and a previous report that the central α-helical core of the S. aureus δ-toxin could be converted into AMP through the inclusion of additional lysine residues^39. The collection included ten members with single substitutions relative to STIP3-1 and others that incorporated a number of changes that were designed to increase overall and local cationic charge as well as hydrophobic character (Table 5). Each of the STIPs was screened, including STIP3-1 to STIP-31, for antibiotic activity against a methicillin-sensitive S. aureus test organism and a panel of 7 MRSA strains defined by distinct SCCmec genotypes (FIG. 2; ATCC MP-2).
Determination of minimum inhibitory concentrations. The MICs were measured for bioactive peptides identified from the initial screen. For bacterial studies, cation-adjusted Mueller Hinton (MH) broth was used as the growth medium whereas YPD was used for C. albicans. Bacterial cultures were diluted to a OD value of 6×10^−4 in MH broth and a 180 μl volume was mixed with 20 μl of peptide arrayed as 2-fold dilution series in a 96-well plate. For the positive control, 20 μl of sterile water was used. Plates were incubated as standing cultures overnight at 37° C. The lowest peptide concentration that resulted no observed microbial growth after an overnight treatment was defined as the MIC.

[4] = Circular dichroism spectroscopy; format: physicochemical; details: CD, 50% (v/v) TFE
Description: The δ-toxins and the PSMs are characterized as α-helical peptides that form amyloid fibers^48. Although the propensity of individual peptides to form amyloids is correlated to their cytotoxicity^49, the amyloid form is not directly implicated in cell membrane disruption^50. […] CD spectroscopy was used to investigate the secondary structure of a subset of peptides within the collection (FIG. 4A, Table 5). The STIP variants adopted α-helical forms in 50% (v/v) trifluoroethanol (TFE), though unlike the full-length S. auricularis δ-toxin, they were unstructured in water. […] Specifically, peptides characterized by the greatest and least α-helical content in TFE had MICs above the highest tested threshold.
Circular dichroism spectroscopy. Peptides were dissolved in water at concentrations between 0.3 and 0.5 mg/mL. CD spectra were recorded on an Applied Photophysics Chirascan Plus CD spectrophotometer at room temperature in a 0.1 cm path-length quartz cuvette. Spectra were recorded from 180 to 260 nm.

[5] = test system: C. albicans Y537; assay: MIC, YPD broth; format: cell-based, Candida albicans; details: Table 8
[6] = test system: C. albicans MYA-2876; assay: MIC, YPD broth; format: cell-based, Candida albicans; details: Table 8
Method in brief: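 Minimum inhibitory concentrations against Candida albicans were determined in YPD broth (10 g/L yeast extract, 20 g/L peptone, 20 g/L dextrose) using peptides of 95% purity. A 180 μl volume of diluted yeast was combined with 20 μl of peptide in a 2-fold dilution series in 96-well plates, with sterile water as control, then incubated standing overnight at 37° C.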

[7] = test system: Saccharomyces cerevisiae AR 399; assay: MIC, YPD broth, CDC and FDA AR Candida isolate panel; format: cell-based; details: Table 9 below the line: only 200 or 100 μg/mL tested; values reported as 100 are ≤100 μg/mL
Method in brief: (§2)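 Peptides of 95% purity were tested as 2-fold dilution series against yeast diluted to an optical density of […]. Cultures stood overnight at 37° C, with sterile water as control.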

[8] = test system: Candida lusitaniae AR 398; assay: as above; format: cell-based; details: Table 9 below the line: only 200 or 100 μg/mL tested; values reported as 100 are ≤100 μg/mL
Method in brief: as §2

[9] = test system: Candida duobushaemulonii AR 391; assay: as above; format: cell-based; details: Table 9 below the line: only 200 or 100 μg/mL tested; values reported as 100 are ≤100 μg/mL
Method in brief: as §2

[10] = test system: Candida duobushaemulonii AR 394; assay: as above; format: cell-based; details: Table 9 below the line: only 200 or 100 μg/mL tested; values reported as 100 are ≤100 μg/mL
Method in brief: as §2

[11] = test system: Candida krusei AR 397; assay: as above; format: cell-based; details: Table 9 below the line: only 200 or 100 μg/mL tested; values reported as 100 are ≤100 μg/mL
Method in brief: as §2

[12] = test system: Candida haemulonii AR 395; assay: as above; format: cell-based; details: Table 9 below the line: only 200 or 100 μg/mL tested; values reported as 100 are ≤100 μg/mL
Method in brief: as §2

[13] = test system: Candida haemulonii AR 393; assay: as above; format: cell-based; details: Table 9 below the line: only 200 or 100 μg/mL tested; values reported as 100 are ≤100 μg/mL
Method in brief: as §2

[14] = test system: Saccharomyces cerevisiae AR 400; assay: as above; format: cell-based; details: Table 9 below the line: only 200 or 100 μg/mL tested; values reported as 100 are ≤100 μg/mL
Method in brief: as §2

[15] = test system: Kodamae ohmeri AR 396; assay: as above; format: cell-based; details: Table 9 below the line: only 200 or 100 μg/mL tested; values reported as 100 are ≤100 μg/mL
Method in brief: as §2

[16] = test system: Candida duobushaemulonii AR 392; assay: as above; format: cell-based; details: Table 9 below the line: only 200 or 100 μg/mL tested; values reported as 100 are ≤100 μg/mL
Method in brief: as §2

[17] = test system: S. aureus ATCC BAA-42 (MRSA SCCmec type VI); assay: MIC, broth dilution; format: cell-based, Staphylococcus aureus; details: Table 5; STIP3 variants, highest concentration 100 μg/mL
Method in brief: as §1

[18] = test system: S. aureus ATCC BAA-44 (MRSA SCCmec type I); assay: MIC, broth dilution; format: cell-based, Staphylococcus aureus; details: Table 5; STIP3 variants, highest concentration 100 μg/mL
Method in brief: as §1

[19] = test system: S. aureus ATCC BAA-2313 (MRSA SCCmec type XI); assay: MIC, broth dilution; format: cell-based, Staphylococcus aureus; details: Table 5; STIP3 variants, highest concentration 100 μg/mL
Method in brief: as §1

[20] = test system: S. aureus ATCC BAA-41 (MRSA SCCmec type II); assay: MIC, broth dilution; format: cell-based, Staphylococcus aureus; details: Table 5; STIP3 variants, highest concentration 100 μg/mL
Method in brief: as §1

[21] = test system: S. aureus ATCC BAA-2094 (MRSA SCCmec type V); assay: MIC, broth dilution; format: cell-based, Staphylococcus aureus; details: Table 5; STIP3 variants, highest concentration 100 μg/mL
Method in brief: as §1

[22] = test system: S. aureus ATCC BAA-1683 (MRSA SCCmec type IV); assay: MIC, broth dilution; format: cell-based, Staphylococcus aureus; details: Table 5; STIP3 variants, highest concentration 100 μg/mL
Method in brief: as §1

[23] = test system: Mannheimia haemolytica ATCC 33393; assay: MIC, broth dilution; format: cell-based; details: Table 11; highest concentration 25 μg/mL
Method in brief: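 Peptides (95% purity) in 2-fold dilution series were mixed with M. haemolytica diluted to OD 6×10^−4 in cation-adjusted Mueller Hinton broth and incubated standing overnight at 37 °C. MIC was the lowest concentration with no visible growth.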

Compound: CC[C@H](C)[C@H](NC(=O)[C@H](Cc1c[nH]c2ccccc12)NC(=O)[C@H](CCCCN)NC(=O)[C@@H](NC(=O)[C@H](CC(C)C)NC(=O)CNC(=O)CNC(=O)[C@@H](NC(=O)[C@@H](N)[C@@H](C)O)C(C)C)C(C)C)C(=O)N[C@@H](CC(C)C)C(=O)N[C@H](CCCCN)C(=O)N[C@H](C(=O)N[C@H](C(=O)N[C@@H](CCCCN)C(=O)N[C@@H](CCCCN)C(=O)N[C@@H](Cc1ccccc1)C(=O)N[C@@H](C)C(N)=O)C(C)C)[C@@H](C)O [STIP3-29-D1, TVGGLVKWILKTVKKFA-NH2] (H-TVGGLVKWIL[dK]TVKKFA-NH2; N-terminus assumed)
- MIC S. aureus ATCC 33592 (III) [1]: 25 µg/mL (≈ 13.2 µM)
- MIC S. aureus ATCC 29213 [2]: 12.5 µg/mL (≈ 6.62 µM)
- fold increase of MIC relative to STIP3-29 [3]: 4 fold
- α helicity (%) [4]: 51%
- MIC C. albicans Y537 [5]: 25 µg/mL (≈ 13.2 µM)
- MIC C. albicans MYA-2876 [6]: 12.5 µg/mL (≈ 6.62 µM)

Compound: TVKVLVKWILKVVAKFA [STIP3-26, TVKVLVKWILKVVAKFA]
- MIC (μg/mL) Saccharomyces cerevisiae AR 399 [7]: ≤ 100 µg/mL
- MIC (μg/mL) Candida lusitaniae AR 398 [8]: ≤ 100 µg/mL
- MIC (μg/mL) Candida duobushaemulonii AR 391 [9]: > (values below the line were determined using two concentrations of peptide 200 or 100 μg/mL)
- MIC (μg/mL) Candida duobushaemulonii AR 394 [10]: > (values below the line were determined using two concentrations of peptide 200 or 100 μg/mL)
- MIC (μg/mL) Candida krusei AR 397 [11]: > (values below the line were determined using two concentrations of peptide 200 or 100 μg/mL)
- MIC (μg/mL) Candida haemulonii AR 395 [12]: > (values below the line were determined using two concentrations of peptide 200 or 100 μg/mL)
- MIC (μg/mL) Candida haemulonii AR 393 [13]: > (values below the line were determined using two concentrations of peptide 200 or 100 μg/mL)
- MIC (μg/mL) Saccharomyces cerevisiae AR 400 [14]: ≤ 100 µg/mL
- MIC (μg/mL) Kodamae ohmeri AR 396 [15]: > (values below the line were determined using two concentrations of peptide 200 or 100 μg/mL)
- MIC (μg/mL) Candida duobushaemulonii AR 392 [16]: > (values below the line were determined using two concentrations of peptide 200 or 100 μg/mL)
- MIC S. aureus ATCC BAA 42 (VI) [17]: > (no inhibition was observed at the highest concentration of peptide tested: 100 μg/mL for the STIP3 variants)
- MIC S. aureus ATCC 33592 (III) [1]: > (no inhibition was observed at the highest concentration of peptide tested: 100 μg/mL for the STIP3 variants)
- MIC S. aureus ATCC BAA 44 (I) [18]: > (no inhibition was observed at the highest concentration of peptide tested: 100 μg/mL for the STIP3 variants)
- MIC S. aureus ATCC BAA 2313 (XI) [19]: > (no inhibition was observed at the highest concentration of peptide tested: 100 μg/mL for the STIP3 variants)
- MIC S. aureus ATCC 29213 [2]: > (no inhibition was observed at the highest concentration of peptide tested: 100 μg/mL for the STIP3 variants)
- MIC S. aureus ATCC BAA 41 (II) [20]: > (no inhibition was observed at the highest concentration of peptide tested: 100 μg/mL for the STIP3 variants)
- MIC S. aureus ATCC BAA 2094 (V) [21]: > (no inhibition was observed at the highest concentration of peptide tested: 100 μg/mL for the STIP3 variants)
- MIC S. aureus ATCC BAA 1683 (IV) [22]: > (no inhibition was observed at the highest concentration of peptide tested: 100 μg/mL for the STIP3 variants)
- inhibition of S. aureus ([3]; MIC screen, in words): incapable of inhibiting S. aureus
- MIC (μg/mL) M. haemolytica [23]: > (> symbol indicates that no inhibition was observed at the highest concentration of peptide tested: 25 μg/mL)
- MIC C. albicans Y537 [5]: > (> symbol indicates that no inhibition was observed at the highest concentration of peptide tested: 100 μg/mL)
- MIC C. albicans MYA-2876 [6]: > (> symbol indicates that no inhibition was observed at the highest concentration of peptide tested: 100 μg/mL)

Reference: US12370235B2, “Synthetic, non-natural antimicrobial peptides inspired by Staphylococcus auricularis delta toxin” (University of Saskatchewan, priority 2021, dated 2025)
